Like-named read-outs stand apart in the source and are kept apart here.
How the values were obtained:
ERβ [1] = target: T1, ERβ (Homo sapiens, UniProt Q92731); test: Estrogen ERβ competitive radioligand binding with [3H]estradiol; design: made in house; host or cells: insect Sf9 cells
Description: IC50 values were determined by non-linear least squares regression analysis. […] The Hill coefficient (nH) defines the slope of the competitive binding curve and was determined using MathIQ™ (ID Business Solutions Ltd., UK).
Estrogen ERβ • Source: Human recombinant insect Sf9 cells
Target sequence in this assay (Q92731 264-498 limits assumed): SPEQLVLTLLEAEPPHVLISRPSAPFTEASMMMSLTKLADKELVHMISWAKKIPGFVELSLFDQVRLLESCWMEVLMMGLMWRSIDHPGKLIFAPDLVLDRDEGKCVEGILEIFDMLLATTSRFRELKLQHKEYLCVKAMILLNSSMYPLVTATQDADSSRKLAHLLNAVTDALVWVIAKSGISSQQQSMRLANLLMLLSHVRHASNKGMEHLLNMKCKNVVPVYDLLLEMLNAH

ERβ [2] = target: T1, ERβ; test: ERβ coactivator response; assay type: biochemical; design: concentration or dose not given beside the values
Target sequence in this assay (Q92731 whole entry): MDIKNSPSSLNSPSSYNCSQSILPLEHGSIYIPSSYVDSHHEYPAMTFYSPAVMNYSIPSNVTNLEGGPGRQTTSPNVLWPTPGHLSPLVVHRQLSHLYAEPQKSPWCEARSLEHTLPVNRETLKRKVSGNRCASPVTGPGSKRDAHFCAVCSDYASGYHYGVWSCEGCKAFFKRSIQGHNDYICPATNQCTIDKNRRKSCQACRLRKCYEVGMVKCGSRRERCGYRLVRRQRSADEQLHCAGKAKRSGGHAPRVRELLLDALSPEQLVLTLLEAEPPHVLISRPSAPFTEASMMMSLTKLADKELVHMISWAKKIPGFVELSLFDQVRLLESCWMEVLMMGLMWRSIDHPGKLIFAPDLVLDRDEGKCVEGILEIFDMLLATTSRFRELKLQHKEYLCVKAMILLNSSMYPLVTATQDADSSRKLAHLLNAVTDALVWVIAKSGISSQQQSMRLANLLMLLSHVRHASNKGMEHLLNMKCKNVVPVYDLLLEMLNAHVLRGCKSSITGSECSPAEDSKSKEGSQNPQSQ

ERβ [3] = target: T1, ERβ; conditions: reference compound, Estrogen ERβ; cited from earlier work
Target sequence in this assay (Q92731 264-498 limits assumed): as the sequence (Q92731 264-498 limits assumed) above

[4] = Co-administration of Proellex and Androxal in cycling female baboons, 180 days daily oral; assay type: in vivo; conditions: daily oral 180 days, Androxal 25 mg
Description: All treatment groups received daily oral administration of the appropriate capsule(s) for 180 days. Daily oral dosing was started in the luteal phase. […] Daily observations of estrus (heat) were conducted for all groups.

[5] = Bone calcium in female pigs after 180 days daily oral dosing; assay type: in vivo
Description: Active agents or placebo were administered after heat (estrus) in the luteal phase. […] All treatment groups received daily oral administration of the appropriate capsule(s) for 180 days. Daily general health observations and weekly body weight measurements were conducted for all groups. Following the 6 month administration period, calcium (parts per million (ppm) dry weight (dw)) was determined in rib and femur bone samples from pigs in each treatment group: […]

[6] = third of three separate radioligand binding studies, read-out: Receptor Binding ERβ IC50

Q: With `CCNCCOc1ccc(/C(=C(/Cl)c2ccccc2)c2ccc(O)cc2)cc1` [4-OH-N-Desethyl enclomiphene, (E)-4-OH-desethyl Clomiphene] as the compound, how does the IC50 (ERβ [1]; [6]) read?
A: Its IC50 is 0.45 nM.

Q: What about the “ERβ Coactivator Response Ant (antagonist)” value (shortened to “ERβ Coactivator Response Ant”) (ERβ [2]; second of two separate studies) of the same compound?
A: The value was 104%.

Q: What does the source list for `CCN(CC)CCOc1ccc(/C(=C(/Cl)c2ccccc2)c2ccc(O)cc2)cc1` [4-OH-enclomiphene, (E)-4-OH-Clomiphene]?
A: nH (Hill coefficient) (ERβ [1]; ERβ, hum): 1.56; % Inh. (ERβ [1]; ERβ, hum, Conc. 0.9 nM): 67%; Ki (ERβ [1]; ERβ, hum, Cheng-Prusoff): 0.12 nM; IC50 (ERβ [1]; ERβ, hum, additional data, read-out: IC50): 0.57 nM; ligand preference ERα versus ERβ (ERβ [1]; based on binding and co-activator studies): better ligand for ERβ; IC50 (ERβ [1]; first of three separate radioligand binding studies, read-out: Receptor Binding ERβ IC50): 0.57 nM; IC50 (ERβ [1]; second of three separate radioligand binding studies, read-out: Receptor Binding ERβ IC50): 0.41 nM; ERβ Coactivator Response Ant (antagonist) (ERβ [2]; first of two separate studies): 60%

Q: With `NCCOc1ccc(/C(=C(/Cl)c2ccccc2)c2ccccc2)cc1` [Di-de-ethyl-enclomiphene, (E)-di-desethyl Clomiphene] as the compound, how does the “ERβ Coactivator Response Ant” value (ERβ [2]; first of two separate studies) read?
A: Its value is 87%.

Q: With `CC/C(=C(/CC)c1ccc(O)cc1)c1ccc(O)cc1` [Diethylstilbestrol] as the compound, how does the “Historical nH” value (ERβ [3]) read?
A: Its value is 1.20.

Q: Which cycling [4] does the source give for `CCN(CC)CCOc1ccc(/C(=C(/Cl)c2ccccc2)c2ccccc2)cc1` [Enclomiphene, trans-clomiphene] here?
A: Its cycling is “prevented cycling”.

Q: And the “cycling of vaginal bleeding” value ([4]; Proellex 12 mg)?
A: The value was “stopped”.

Q: What about the “swelling (turgesence) of the tissue around the tail under the control of estrogen” value ([4]; Proellex 12 mg) of the same compound?
A: Its value is “inhibited the swelling”.

Q: And the “ERβ Coactivator Response Ant” value (ERβ [2]; first of two separate studies)?
A: Its value is 65%.

Q: And the “effect on calcium content of bone” value ([5]; female pigs, daily oral 180 days)?
A: Its value is “did not affect the calcium content of bone”.

Q: And the “Ca (ppm dw), Mean” value ([5]; rib and femur bone samples, female pigs n = 3, daily oral 180 days, Proellex 12 mg, Androxal 25 mg)?
A: The value was 139300.00 ppm dw.

Q: For `CC[N+]([O-])(CC)CCOc1ccc(/C(=C(/Cl)c2ccccc2)c2ccccc2)cc1` [Enclomiphene-NO, (E)-Clomiphene-NO], which “ERβ Coactivator Response Ant” value (ERβ [2]; first of two separate studies) is on record?
A: Its value is 95%.

Q: Which IC50 (ERβ [1]; [6]) does the source give for `CCNCCOc1ccc(/C(=C(/Cl)c2ccccc2)c2ccccc2)cc1` [N-Desethyl enclomiphene, (E)-desethyl Clomiphene] here?
A: Its IC50 is 1.13 nM.

Q: And the “ERβ Coactivator Response Ant” value (ERβ [2]; second of two separate studies)?
A: The value was 74%.

Q: For `COCC(=O)[C@@]1(OC(C)=O)CC[C@H]2[C@@H]3CCC4=CC(=O)CCC4=C3[C@@H](c3ccc(N(C)C)cc3)C[C@@]21C` [Proellex, 21-methoxy-17α-acetoxy-11β-(4 N, N-dimethylaminophenyl)-19-norpregna-4,9-diene-3,20-dione], which “cycling of vaginal bleeding” value ([4]; Proellex 12 mg) is on record?
A: Its value is “stopped”.

Q: And the endometrial thickness ([4]; Proellex 12 mg)?
A: The endometrial thickness was “increase in endometrial thickness”.

Q: What about the “swelling (turgesence) of the tissue around the tail under the control of estrogen” value ([4]; Proellex 12 mg) of the same compound?
A: Its value is “not proellex alone inhibited the swelling”.

Q: What about the “effect on calcium content of bone” value ([5]; pig, in vivo, po) of the same compound?
A: The value was “did not affect the calcium content of bone”.
